One assay deals with Tlp11-LBD. The assay can be described thus: Microscale thermophoresis (MST) of Tlp11-LBD. In kind it is binding, C. jejuni ATCC 33560. On the procedure:
(§1) The His-tag dye (MO-L018 RED-tris-NTA, NanoTemper, Germany) was adjusted to a final concentration of 25 nM and used to label the purified protein with a His-tag. The compound was diluted to a series of concentrations in phosphate-buffered saline ([Duan et al., 2023]) with 0.05% Tween 20 (PBS-T) buffer and mixed in a ratio of 1:1 with protein. The mixtures were loaded into capillaries (Monolith™ Series capillaries, NanoTemper) by means of capillary action. Thermophoresis was measured using a Monolith™ NT.115 (NanoTemper) instrument, with 40% excitation and 40% MST power configuration. The time-traces of changes in fluorescence, which reflected the thermophoretic movement of labeled protein affected by different concentrations of compound were recorded, and the dose–response curves were fitted with the ‘temperature jump and thermophoresis’ mode. Data analysis was performed using MO. Affinity Analysis version 2.3 (NanoTemper) and Prism version 8.0.2 (GraphPad Software, United States).
MST quantifies interaction affinities by detecting the direct movement of fluorescent molecules along temperature gradients in capillaries. Ligand binding changes the thermophoretic movement of proteins, which can be used to derive Kds, by sequentially scanning capillaries with different ligand concentrations. MST has been applied to the study of weak binding systems and validated to provide reliable results ([Linke et al., 2016]; [Gao et al., 2021]). […] We also tested the binding abilities of methyl pyruvate analogues to Tlp11-LBD using MST (Supplementary Table S3).

For assay [1], the target named is Tlp11-LBD homologue (WP_201459806.1, residues 32-332). The assay can be described thus: MST of Tlp11-LBD homologue. In kind it is binding, Campylobacter coli. The settings on record: C. coli LBD. On the procedure: as §1
(§2) To evaluate whether these potential Tlp11-LBD homologues could bind to methyl pyruvate, we conducted a structural analysis of the LBDs of six chemoreceptors from C. coli, H. equorum, H. himalayensis, H. mesocricetorum, H. ganmani, and C. upsaliensis using Alphafold 2. […]

Assay [2] has as its target Tlp11-LBD homologue (WP_066386874.1, residues 33-320). The assay can be described thus: MST of Tlp11-LBD homologue. In kind it is binding, Helicobacter himalayensis. The settings on record: H. himalayensis LBD. As for the experimental part: as §1, §2
Assay [3] concerns the target Tlp11-LBD homologue (WP_199770133.1, residues 31-330). As to the kind of experiment: MST of Tlp11-LBD homologue. In kind it is binding, Helicobacter mesocricetorum. The settings on record: H. mesocricetorum LBD. On the procedure:
as §1, §2

In assay [4] the test system is Tlp11[1-342]-Tar[200-553] (Tlp342Tar200). The assay can be described thus: Microfluidic chemotaxis of E. coli expressing hybrid chemoreceptor Tlp342Tar200. In kind it is cell-based, E. coli VS188. The settings on record: microfluidic device, 50 min. On the procedure: The E. coli cells expressing hybrid chemoreceptor and GFP were grown in tryptone broth, up to an OD600 of 0.55, at 34°C, with shaking at 250 rpm. The cells were harvested by means of centrifugation at 5,000 rpm, washed twice with Tethering Buffer (10 mM KH2PO4, 10 mM K2HPO4, and 0.1 mM EDTA, pH 7.0), and resuspended in Tethering Buffer such that an OD600 of 5.5 was attained. The chemotactic responses of E. coli cells to the compounds were measured using a microfluidic device ([Si et al., 2012]). The collected E. coli cells were added to the sink pores of the device and allowed to freely diffuse into the observation channel for 40 min. Subsequently, the compound solution was added to the source pores, to establish a concentration gradient gradually in the observation channel of the device. Fluorescence intensity in the observation channel was detected using an LSM 800 laser scanning confocal microscope (Zeiss, Germany). Data were analyzed using ImageJ software.
To determine whether methyl pyruvate stimulates transmembrane signaling through Tlp11-LBD, we fused C. jejuni ATCC 33560 Tlp11-LBD with the cytoplasmic region of the E. coli chemoreceptor Tar to construct Tlp11-Tar hybrid chemoreceptors (Figure 3A). Five hybrid receptors with different fusion positions in the second transmembrane helix (TM2) were obtained: Tlp11[1-342]-Tar[200-553] (Tlp342Tar200), Tlp11[1-343]-Tar[200-553] (Tlp343Tar200), Tlp11[1-346]-Tar[204-553] (Tlp346Tar204), Tlp11[1-347]-Tar[204-553] (Tlp347Tar204), and Tlp11[1-348]-Tar[204-553] (Tlp348Tar204) (Supplementary Figure S5A). To verify the activities of these hybrid chemoreceptors, we expressed each protein as a chimera in green fluorescent protein (GFP)-labeled E. coli VS188 without any other chemoreceptors, such that each hybrid receptor served as the only chemoreceptor in the E. coli. […] These chemotactic responses triggered by glucose through the phosphotransferase system are independent of the chemoreceptor LBD ([Neumann et al., 2012]). […] Thus, we used this hybrid receptor for subsequent chemotaxis measurements.

Structures are written as SMILES. Where two headings read alike, the source gives them in different places.

What is called Kd is the equilibrium constant for the complex coming apart.

In the case of `COC(=O)C(C)=O` [methyl pyruvate, Methyl pyruvate], the Kd at Tlp11-LBD (250 nM protein, methyl pyruvate at pH 7.0, read-out: Kd of Tlp11-LBD binding) was 0.688 ± 0.14 mM; on Tlp11-LBD (Tlp11-LBD saturated with 5 mM quinoline, read-out: Kd of Tlp11-LBD interacting with methyl pyruvate) it was 3.9 ± 1.1 mM; at Tlp11-LBD (Tlp11-LBD saturated with 5 mM toluene, read-out: Kd of Tlp11-LBD interacting with methyl pyruvate), 18 ± 3 mM; in assay [1], 1.4 ± 0.5 mM; in assay [2], 1.1 ± 0.3 mM; in assay [3], 1.2 ± 0.4 mM. The “chemotactic response of E. coli expressing Tlp342Tar200 as the sole receptor” value in assay [4] is on record as “strong attractant response”.

For the origin of these results see PMC11111895, “Identification of a dCache-type chemoreceptor in Campylobacter jejuni that specifically mediates chemotaxis towards methyl pyruvate” (Frontiers in Microbiology, 2024).
